From paper PMC6145841 (Biochemistry, 2018)
pEC50: −log10 of the molar value. Square brackets hold non-standard residues; d marks the D form. Peptide text beside a SMILES is read from it.

Legend:
ComD1 receptor [1] = biological target: T1, ComD1 receptor (Streptococcus pneumoniae serotype 2, UniProt A0A0H2ZM50); settings: Table 1; ref [26]; cited from earlier work
ComD1 receptor [2] = biological target: T1, ComD1 receptor; assay: Beta-galactosidase reporter dose response assay, group I strain D39pcomX::lacZ; assay type: cell-based
ComD2 receptor = ComD2 receptor (Streptococcus pneumoniae serotype 4, UniProt A0A0H2US84); assay type: cell-based

Row | Compound | activity against the ComD1 receptor (in words) (ComD1 receptor [1]) | pEC50 (ComD1 receptor [2]) | pEC50 (ComD2 receptor)
1 | EMALSKFFRDFILQRKK [CSP1-R3A] | complete loss of activity | – | –
2 | CC[C@H](C)[C@H](NC(=O)[C@H](C)NC(=O)[C@H](C)NC(=O)[C@H](C)NC(=O)[C@H](CCCNC(=N)N)NC(=O)[C@H](CCSC)NC(=O)[C@@H](N)CCC(=O)O)C(=O)N[C@H](C(=O)N[C@@H](CC(C)C)C(=O)N[C@H](CC(=O)O)C(=O)N[C@@H](Cc1ccccc1)C(=O)N[C@@H](CC(C)C)C(=O)N[C@@H](Cc1ccccc1)C(=O)N[C@@H](C)C(=O)N[C@@H](CCCNC(=N)N)C(=O)N[C@@H](CCCCN)C(=O)N[C@@H](CCCCN)C(=O)O)[C@@H](C)CC [CSP2-I4AS5AR6Ad10L14A] (H-EMRAAAIIL[dD]FLFARKK-OH) | – | < 6.00 | 7.06
